Results reported in patent publication US10842849B2, “Methods for promoting neuronal outgrowth by insulin-like growth factor binding protein-like 1 (IGFBPL-1) in glaucoma or leber's optic neuropathy” (The Schepens Eye Research Institute, Inc., priority 2011, dated 2020).
“Also recorded” adds a separate entry of the source.

B1: IGFBPL-1: insulin-like growth factor binding protein-like 1 protein; mouse recombinant IGFBPL-1 used in tests (protein)
chain: LGLRDAGRRHPECSPCQQDRCPAPSPCPAPWISARDECGCCARCLGAEGASCGGPVGSRCGPGLVCASRASGTAPEGTGLCVCAQRGAVCGSDGRSYSSICALRLRARHAPRAHHGHLHKARDGPCEFAPVVLMPPRDIHNVTGTQVFLSCEVKAVPTPVITWKKVKHSPEGTEGLEELPGDHVNIAVQVRGGPSDHETTSWILINPLRKEDEGVYHCHAANAIGEAQSHGTVTVLDLNRYKSLYSSVPGDLL

How the values were obtained:
[1] = tested on: Retinal ganglion cells (RGCs) isolated from P0 mice; experiment: P0 RGC culture: neurite outgrowth and survival; assay type: cell-based, mouse; settings: for RGC neurite outgrowth / axonal extension: P0 RGC cultures, 3 days, beta-III-tubulin/Tuj1 immunostaining; for RGC cell survival: P0 RGCs; for effect on IGFBPL-1 induced neurite/axon growth: P0 RGC cultures treated with IGFBPL-1 plus inhibitor or neutralizing antibody
From the text: The experiments described herein were aimed to elucidate the functional role and mechanisms of IGFBPL-1 on RGC survival and axon extension in mice. The expression pattern of IGFBPL-1 in the developing retina was examined in retinas at different developmental stage, ranging from embryonic day 16 through adult, using immunohistochemistry, western blot and quantitative RT-PCR. Retinal ganglion cells were purified using magnetic beads conjugated with Thy1.2 antibody from new born mouse pups at postnatal day 0 (P0), and cultured for up to five days in the presence or absence of IGFBPL-1 and/or IGF-I proteins. RGC survival and axonal growth were evaluated after three days in culture following LIVE/DEAD® and β-III-tubulin immunostaining. Lentiviral shRNAs were used to knockdown the expression of IGFBPL-1 and/or IGF-I in culture. The functional role of IGFBPL-1 in RGC development was further evaluated in IGFBPL-1 knockout (KO) mouse. RGC morphology and number were recorded using retinal vertical sections or whole-mount preparation. The number of axons in the optic nerve head was counted under electron microscopy. Data collected from the IGFBPL-1 KO mice were compared with that obtained from age-matched wildtype C57BL/6 littermates.
RGC neurite outgrowth in the absence (FIG. 3A) and presence (FIG. 3B) of IGFBPL-1 promotes in RGC cell culture. Retinal ganglion cells (RGCs) isolated from P0 mice were cultured in the absence (control) and presence of IGFBPL-1 (IGFBPL-1) for 3 days and were immunolabeled with primary antibody against a RGC specific marker Tuj1 (red). Note that RGCs extend long neurite in IGFBPL-1-treated cultures as compared to control culture group.

[2] = tested on: Akt; experiment: P10 retina incubation, western blot of phosphorylated Akt; assay type: cell-based, mouse; settings: P10 retinas incubated 30 min or 6 hours at 37° C.
Method: (§1) P10 retinas were dissected and incubated with IGF-I, IGFBPL1 and IGF-I+IGFBPL1 for 30 min or 6 hours at 37° C. Retina lysates were prepared for western blotting, using antibodies against IGF-1-mediated downstream signals, mTOR and Akt.

[3] = tested on: mTOR; experiment: P10 retina incubation, western blot of phosphorylated mTOR; assay type: cell-based, mouse; settings: P10 retinas incubated 30 min or 6 hours at 37° C.
Method: as §1

[4] = tested on: cultured RGCs derived from P10 mice; experiment: P10 RGC culture: axon length and survival; assay type: cell-based, mouse; settings: for axon length / neurite outgrowth: treated 3 days
Method: Cells were treated with control, IGF-I, IGFBPL1 or both for 3 days and were immunostained with βIII-tubulin to reveal axons.

[5] = tested on: hippocampal neurons; experiment: Hippocampal neuronal cultures: neurite outgrowth; assay type: cell-based; settings: beta III tubulin staining
From the text: FIG. 9B are histograms showing quantification of neurite outgrowth in control; and neurons exposed to IGFBPL-1; IGF-1; IGFBPL-1+IGF-1; IGFBPL-1+H1356; IGFBPL-1+Neut. Ab; IGFBPL-1+IGFI-1+Neut. Ab.

[6] = target: IGF-1 (Mus musculus, UniProt P05017); experiment: Co-immunoprecipitation of IGFBPL-1 and IGF-1 (western blot); assay type: binding; settings: mouse recombinant proteins and retina lysates
From the text: FIGS. 5(I) A and B and FIGS. 5 (II) A and B are western blots showing binding of IGFBP-1 with IGF-I using mouse recombinant IGFBPL-1 and IGF-1 (FIG. 5(I)) and retina lysates (FIG. 5(II)).

[7] = tested on: RGC axons after optic nerve crush; experiment: Optic nerve regeneration in vivo after optic nerve crush; settings: intravitreous delivery, optic nerve crush in mice
From the text: IGF-1 ([…]). IGFBPL-1 (n=7). IGF1+IGFBPL1 (n=6).

Sequence of IGF-1 (P05017 1-118 limits assumed): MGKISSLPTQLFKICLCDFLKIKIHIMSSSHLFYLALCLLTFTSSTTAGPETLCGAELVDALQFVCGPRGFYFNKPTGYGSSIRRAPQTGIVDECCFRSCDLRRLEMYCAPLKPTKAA

| Molecule | RGC neurite outgrowth / axonal extension [1] | RGC neurite outgrowth / axonal extension ([1]; listed as IGF-I) | RGC cell survival [1] | phosphorylation of Akt [2] | phosphorylation of mTOR [3] | RGC survival [4] | axon length / neurite outgrowth [4] | effect on IGFBPL-1 induced neurite/axon growth [1] | effect on IGFBPL-1 induced neurite/axon growth ([1]; listed as inhibitor of IGF-I and IGFBP binding) | RGC neurite outgrowth / axonal extension ([1]; listed as IGFBPL1) | neurite growth in hippocampal neuronal cultures [5] | binding / interaction with IGF-1 [6] | regeneration of RGC axons [7] |
| --- | --- | --- | --- | --- | --- | --- | --- | --- | --- | --- | --- | --- | --- |
| IGF-1: Insulin Growth Factor 1 protein | robust neurite outgrowth | promotes both neurite outgrowth and cell survival | promotes both neurite outgrowth and cell survival | increased level of phosphorylated mTOR and Akt | increased level of phosphorylated mTOR and Akt | affect the survival | does not promote neurite outgrowth |  |  |  |  |  |  |
| O=C(O)c1cc2cc(O)c(O)cc2c(C(=O)c2ccc(O)c(O)c2)n1 [NBI-31772, reference compound] |  |  |  |  |  |  |  | abolishes the neurite growth effect of IGFBPL-1 | abolishes the growth promoting activity of IGFBPL1 |  |  |  |  |
| B1 | significantly promoted axonal extension; also recorded: promotes RGC neurite outgrowth; also recorded: stimulates neurite outgrowth; also recorded: robust neurite outgrowth |  | promotes both neurite outgrowth and cell survival |  | prolongs the phosphorylation | affect the survival | does not promote neurite outgrowth |  |  | promotes both neurite outgrowth and cell survival | induced neurite growth | directly interacts with IGF-1 | significantly promotes the regeneration of RGC axons |
